According to PubChem BioAssay (NCI):
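How tested: cells in 96-well plates exposed to compound for 48 hours at five concentrations. The concentration for full growth arrest is given as TGI.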

Tests used:
Assay in all cases: NCI tumour cell line growth inhibition, 48 h
[1] = system: P388 leukemia
[2] = system: P388/ADR leukemia
[3] = system: HOP-18 NSCLC
[4] = system: SN12K1 renal
[5] = system: LXFL 529 NSCLC
[6] = system: RXF-631 renal
[7] = system: XF 498 CNS

| Compound | TGI [1] | TGI [2] | TGI [3] | TGI [4] | TGI [5] | TGI [6] | TGI [7] |
| --- | --- | --- | --- | --- | --- | --- | --- |
| O=NN(CCF)C(=O)NC1CCSCC1 | > 100 µM | > 100 µM | > 100 µM | > 100 µM |  |  |  |
| O=C(c1ccccc1)c1c(CC(O)c2ccncc2)n(C(=O)c2ccccc2)c2ccccc12 (centres undefined) |  |  |  |  | 45.9 µM |  |  |
| COC(=O)C(=O)Cc1nc2ccccc2o1 |  |  |  |  | > 100 µM | > 100 µM | > 100 µM |
| O=C1CCCC/C1=C\c1ccc(Cl)c(Cl)c1 |  |  | 51.7 µM |  | 31.2 µM |  |  |
| CN1CCN(P2(=S)Oc3ccc4ccccc4c3-c3c(ccc4ccccc34)O2)CC1 | > 68 µM | > 95.5 µM | > 100 µM | 56.9 µM |  |  | 67.3 µM |
| CCCCCCCCCCCC[N+](CCCCCCCCCCCC)=C1SCCS1 |  |  | 30 µM |  | 14 µM | 52.2 µM |  |
| CCOC(=O)c1c[nH]c2ccc3c(c2c1=O)S(=O)(=O)CC3 (tested in a mixture with another compound) | > 100 µM | > 100 µM | > 100 µM | > 100 µM |  |  | > 100 µM |
| Cc1cc(NS(=O)(=O)c2ccc(NC(=O)c3cccc4c(Nc5ccc(S(N)(=O)=O)cc5)c5ccccc5nc34)cc2)no1 |  |  |  |  | > 100 µM | > 100 µM | > 100 µM |
| O=C1NC2CCCCCC2C12CCCCC2 (centres undefined) |  |  |  |  | > 100 µM | > 100 µM | > 100 µM |
